Here are results for one compound from patent publication US9211420B2, “Kit containing photosensitizing dyes” (Colgate-Palmolive Company, priority 2009, dated 2015).

In the assay the test system is TNFα of HEPM cells stimulated by IL-1β. Kind of assay: Cytokine concentration in IL-1β-stimulated cell culture after light plus photosensitizing dye. It is filed as cell-based, human. The conditions noted are these: Fast Green at 1000 ppm combined with light at 625 nm for 2 minutes (9 mW/cm^2, 1.1 J/cm^2). The procedure: Cells used in this example include human embryonic palatal mesenchymal (HEFM) cells and oral keratinocytes OBA9 cells. The embodiments also can be used with other cells such as human gingival fibroblasts (HGF). Cells were seeded in 24-well plates and cultured until reaching a confluence above 80%. The confluent-stage cells were treated with stimulants such as IL-1β followed by light irradiation alone, or light irradiation combined with GRAS photosensitizing dye. The cells were either pre-incubated in photosensitizing dye before light exposure, or administered at the same time of light exposure. The cells were incubated in photosensitizing dyes for varied amounts of time, the concentration of photosensitizing dyes were varied, and the cell were irradiated with light for varied amounts of time per exposure, as well as irradiation either one time or multiple times, as described below. After irradiation, the cells were incubated at 37° C. The cell culture media was collected after a certain amount of time for cytokine analysis. The results tabulated below reveal that visible light (various wavelength, 380-700 nm) alone and photosensitizing dye irradiated with visible light (various wavelength, 380-700 nm) have anti-inflammation effect. […]

Entries after “also recorded” stand apart in the source; their conditions may differ.

On to `CCN(Cc1cccc(S(=O)(=O)[O-])c1)c1ccc(C(=C2C=CC(=[N+](CC)Cc3cccc(S(=O)(=O)[O-])c3)C=C2)c2ccc(O)cc2S(=O)(=O)[O-])cc1.[Na+].[Na+]` [Fast Green, Fast Green FCF (FD&C Green No. 3)], for which the “Effect on TNFα concentration in the in vitro cell culture” value is “can decrease pro-inflammation cytokine TNFα concentration; also recorded: can reduce concentration of TNFα”.
